In patent US20140303229A1, “NOVEL SKIN MOISTURIZING COMPOSITIONS” (priority 2007, published 2014):

Tested on: skin
Assay: 14-day cumulative irritation potential study (predictive occlusive patch test)
Text: Occlusive patches with 100 micro liters of test product were applied to the skin daily for 14 days. Patches with sodium lauryl sulfate, 1.0% was used as a positive control while white petrolatum was used as a negative control.

White Petrolatum
Category (irritation classification of Berger and Bowman) (in vivo): I
Classification (irritation classification according to Berger and Bowman) (in vivo): Mild material -

CCCCCCCCCCCCOS(=O)(=O)[O-].[Na+] [Sodium lauryl sulfate, 1.0%, Sodium lauryl sulfate]
Classification (irritation classification according to Berger and Bowman) (based on standardized cumulative irritation scores, 14 days, listed as Sodium lauryl sulfate 1.0%, sulfate): possibly mild
Classification (irritation classification according to Berger and Bowman) (based on standardized cumulative irritation scores, 14 days, sulfate): Possibly mild in
Standardized Cumulative Score (cumulative irritation score) (occlusive patches, 100 micro liters, daily for 14 days): 595.4
